Where two headings read alike, the source gives them in different places.
Tests used:
[1] = system: phosphorylated 4E-BP1 Thr37/46 (p4E-BP1 Thr37/46), mTORC1 activity, PC3 cells; test: mTOR target engagement assay, immunofluorescent cell-based, p4E-BP1 Thr37/46 readout (mTORC1 activity); details: read-out: p4E-BP1 Thr37/46 IC50
Method in brief: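 Read-out is fluorescence intensity of immunostained p4E-BP1 Thr37/46 in fixed PC3 cells, fitted to a logistic curve for IC50 with DMSO-only wells as top. Cells had been exposed to serial compound dilutions for ninety minutes at 37° C in 5% FBS medium with 0.25% DMSO.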

[2] = system: phosphorylated AKT Ser473 (pAKT S473), mTORC2 activity, PC3 cells; test: mTOR target engagement assay, immunofluorescent cell-based, pAKT S473 readout (mTORC2 activity)
Method in brief: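 After blocking, cells were stained overnight at 4 °C with anti-pAKT S473 antibody, then a fluorescent secondary; inhibition was read as reduced fluorescence intensity.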

[3] = Homo sapiens, PC-3, Table 6-1, PC3 cells
[4] = Homo sapiens, PC-3, PC3 cells, compound treatment ninety minutes at 37° C.
[5] = Homo sapiens, PC-3, Table 3-1, PC3 cells
[6] = Homo sapiens, PC-3, Table 7-8, PC3 cells

| Compound | IC50 [1, 4] | IC50 [2, 4] | IC50 [1, 5] | IC50 [2, 5] | also measured |
| --- | --- | --- | --- | --- | --- |
| CC(=O)c1c([C@@H]2C[C@H]3CC[C@@H](C2)N3S(C)(=O)=O)nc2c(-c3ccc(-c4ncc[nH]4)nc3)cnn2c1N [Compound 6.10, 1-(3-(6-(1H-imidazol-2-yl)pyridin-3-yl)-7-amino-5-((1R,3s,5S)-8-(methylsulfonyl)-8-azabicyclo[3.2.1]octan-3-yl)pyrazolo[1,5-a]pyrimidin-6-yl)ethanone] | – | – | – | – | IC50 [1, 3]: 0.001 to 0.1 µM; IC50 [2, 3]: 0.001 to 0.1 µM |
| CC(=O)c1c(N2C3CCC2CN(C(=O)CO)C3)nc2c(-c3ccc(-c4ccccc4)nc3)cnn2c1N [Compound 8.7, 1-(8-(6-acetyl-7-amino-3-(6-phenylpyridin-3-yl)pyrazolo[1,5-a]pyrimidin-5-yl)-3,8-diazabicyclo[3.2.1]octan-3-yl)-2-hydroxyethanone] | – | – | – | – | IC50 ([1]; Homo sapiens, PC-3, PC3 cells): 1 to 10 µM; IC50 ([2]; Homo sapiens, PC-3, PC3 cells): 0.1 to 1 µM |
| Nc1c(C2CC2)c([C@@H]2C[C@H]3CC[C@@H](C2)N3C(=O)c2nnc[nH]2)nc2c(-c3cnn(-c4ccccc4)c3)cnn12 [Compound 4.26, ((1R,3s,5S)-3-(7-amino-6-cyclopropyl-3-(1-phenyl-1H-pyrazol-4-yl)pyrazolo[1,5-a]pyrimidin-5-yl)-8-azabicyclo[3.2.1]octan-8-yl)(4H-1,2,4-triazol-3-yl)methanone] | 0.1 to 1 µM | 0.001 to 0.1 µM | – | – | – |
| COCCOCc1ccc(-c2cnn3c(N)c(C(C)=O)c([C@@H]4C[C@H]5CC[C@@H](C4)N5C(=O)c4nnc[nH]4)nc23)cn1 [Compound 7.31, 1-(5-((1R,3s,5S)-8-(4H-1,2,4-triazole-3-carbonyl)-8-azabicyclo[3.2.1]octan-3-yl)-7-amino-3-(6-((2-methoxyethoxy)methyl)pyridin-3-yl)pyrazolo[1,5-a]pyrimidin-6-yl)ethanone] | 1 to 10 µM | 1 to 10 µM | – | – | – |
| Nc1c(C2CC2)c([C@H]2CC3CC[C@H](C2)N3C(=O)c2nnc[nH]2)nc2c(-c3cnc4c(c3)CCCC4O)cnn12 (stereo partly drawn) [Compound 7.54, ((1R,3s,5S)-3-(7-amino-6-cyclopropyl-3-(8-hydroxy-5,6,7,8-tetrahydroquinolin-3-yl)pyrazolo[1,5-a]pyrimidin-5-yl)-8-azabicyclo[3.2.1]octan-8-yl)(4H-1,2,4-triazol-3-yl)methanone] | – | – | – | – | IC50 ([1]; Homo sapiens, PC-3, PC3 cells): 0.001 to 0.1 µM; IC50 ([2]; Homo sapiens, PC-3, PC3 cells): 0.001 to 0.1 µM |
| CS(=O)(=O)c1c([C@@H]2C[C@H]3CC[C@@H](C2)N3C(=O)c2nnc[nH]2)nc2c(-c3cnc4ccc(F)cc4c3)cnn2c1N [Compound 3.25] | – | – | 0.001 to 0.1 µM | 0.001 to 0.1 µM | – |
| CS(=O)(=O)c1c([C@@H]2C[C@H]3CC[C@@H](C2)N3C(=O)CO)nc2c(-c3ccc(-c4ccncc4)nc3)cnn2c1N [Compound 3.65, 1-((1R,3s,5S)-3-(3-(2,4′-bipyridin-5-yl)-7-amino-6-(methylsulfonyl)pyrazolo[1,5-a]pyrimidin-5-yl)-8-azabicyclo[3.2.1]octan-8-yl)-2-hydroxyethanone] | – | – | 1 to 10 µM | 1 to 10 µM | – |
| COc1cc(F)c(-c2ccc(-c3cnn4c(N)c(S(C)(=O)=O)c([C@@H]5C[C@H]6CC[C@@H](C5)N6C(=O)c5nnc[nH]5)nc34)cn2)cc1F [Compound 3.59, ((1R,3s,5S)-3-(7-amino-3-(6-(2,5-difluoro-4-methoxyphenyl)pyridin-3-yl)-6-(methylsulfonyl)pyrazolo[1,5-a]pyrimidin-5-yl)-8-azabicyclo[3.2.1]octan-8-yl)(4H-1,2,4-triazol-3-yl)methanone] | – | – | 0.001 to 0.1 µM | 0.001 to 0.1 µM | – |
| Cc1csc(-c2ccc(-c3cnn4c(N)c(S(C)(=O)=O)c([C@@H]5C[C@H]6CC[C@@H](C5)N6C(=O)c5nnc[nH]5)nc34)cn2)n1 [Compound 3.192, ((1R,3s,5S)-3-(7-amino-6-(methylsulfonyl)-3-(6-(4-methylthiazol-2-yl)pyridin-3-yl)pyrazolo[1,5-a]pyrimidin-5-yl)-8-azabicyclo[3.2.1]octan-8-yl)(4H-1,2,4-triazol-3-yl)methanone] | – | – | 0.1 to 1 µM | 0.1 to 1 µM | – |
| Nc1c(C2CC2)c([C@@H]2C[C@H]3CC[C@@H](C2)N3C(=O)CO)nc2c(-c3ccc(-c4ncc[nH]4)nc3)cnn12 [Compound 6.1, 1-((1R,3s,5S)-3-(3-(6-(1H-imidazol-2-yl)pyridin-3-yl)-7-amino-6-cyclopropylpyrazolo [1,5-a]pyrimidin-5-yl)-8-azabicyclo[3.2.1]octan-8-yl)-2-hydroxyethanone] | – | – | – | – | IC50 [1, 3]: 0.001 to 0.1 µM; IC50 [2, 3]: 0.001 to 0.1 µM |
| CC(=O)c1c([C@@H]2C[C@H]3CC[C@@H](C2)N3C(=O)CO)nc2c(-c3cnc(-c4ccccc4)c(O)c3)cnn2c1N [Compound 1.1.32, 1-((1R,3s,5S)-3-(6-acetyl-7-amino-3-(5-hydroxy-6-phenylpyridin-3-yl)pyrazolo[1,5-a]pyrimidin-5-yl)-8-azabicyclo[3.2.1]octan-8-yl)-2-hydroxyethanone] | 1 to 10 µM | 1 to 10 µM | – | – | – |
| CS(=O)(=O)c1c([C@@H]2C[C@H]3CC[C@@H](C2)N3C(=O)c2c[nH]c(=O)[nH]2)nc2c(-c3ccc(-c4ccccc4)nc3)cnn2c1N [Compound 3.139, 4-((1R,3s,5S)-3-(7-amino-6-(methylsulfonyl)-3-(6-phenylpyridin-3-yl)pyrazolo[1,5-a]pyrimidin-5-yl)-8-azabicyclo[3.2.1]octane-8-carbonyl)-1H-imidazol-2(3H)-one] | – | – | 0.1 to 1 µM | 0.001 to 0.1 µM | – |
| COc1ccc(-c2ccc(-c3cnn4c(N)c(S(C)(=O)=O)c([C@@H]5C[C@H]6CC[C@@H](C5)N6C(=O)c5nnc[nH]5)nc34)cn2)cc1C [Compound 3.50, ((1R,3s,5S)-3-(7-amino-3-(6-(4-methoxy-3-methylphenyl)pyridin-3-yl)-6-(methylsulfonyl)pyrazolo[1,5-a]pyrimidin-5-yl)-8-azabicyclo[3.2.1]octan-8-yl)(4H-1,2,4-triazol-3-yl)methanone] | – | – | 0.001 to 0.1 µM | 0.001 to 0.1 µM | – |
| CS(=O)(=O)c1c(C2CC3COCC(C2)N3C(=O)c2nc[nH]n2)nc2c(-c3ccc(-c4ccccc4)nc3)cnn2c1N (single isomer, unassigned) [Compound 8.30, (7-(7-amino-6-(methylsulfonyl)-3-(6-phenylpyridin-3-yl)pyrazolo[1,5-a]pyrimidin-5-yl)-3-oxa-9-azabicyclo[3.3.1]nonan-9-yl)(1H-1,2,4-triazol-3-yl)methanone] | – | – | – | – | IC50 ([1]; PC3 cells): 0.001 to 0.1 µM; IC50 ([2]; PC3 cells): 0.001 to 0.1 µM |
| COc1ccc(-c2ccc(-c3cnn4c(N)c(Br)c([C@@H]5C[C@H]6CC[C@@H](C5)N6C(=O)c5nnc[nH]5)nc34)cn2)cc1F [Compound 2.4, ((1R,3s,5S)-3-(7-amino-6-bromo-3-(6-(3-fluoro-4-methoxyphenyl)pyridin-3-yl)pyrazolo[1,5-a]pyrimidin-5-yl)-8-azabicyclo[3.2.1]octan-8-yl)(4H-1,2,4-triazol-3-yl)methanone] | 0.1 to 1 µM | 0.1 to 1 µM | – | – | – |
| CS(=O)(=O)c1c([C@@H]2C[C@H]3CC[C@@H](C2)N3C(=O)c2ncc[nH]2)nc2c(-c3ccc(-c4ccccc4)nc3)cnn2c1N [Compound 3.78, ((1R,3s,5S)-3-(7-amino-6-(methylsulfonyl)-3-(6-phenylpyridin-3-yl)pyrazolo[1,5-a]pyrimidin-5-yl)-8-azabicyclo[3.2.1]octan-8-yl)(1H-imidazol-2-yl)methanone] | – | – | 0.1 to 1 µM | 0.1 to 1 µM | – |
| CC(C)(O)c1ccc(-c2cnn3c(N)c(C4CC4)c([C@@H]4C[C@H]5CC[C@@H](C4)N5C(=O)c4nnc[nH]4)nc23)cn1 [Compound 7.39, ((1R,3s,5S)-3-(7-amino-6-cyclopropyl-3-(6-(2-hydroxypropan-2-yl)pyridin-3-yl)pyrazolo[1,5-a]pyrimidin-5-yl)-8-azabicyclo[3.2.1]octan-8-yl)(4H-1,2,4-triazol-3-yl)methanone] | – | – | – | – | IC50 [1, 6]: 0.001 to 0.1 µM; IC50 [2, 6]: 0.001 to 0.1 µM |
| N#Cc1c([C@@H]2C[C@H]3CC[C@@H](C2)N3C(=O)c2nc[nH]n2)nc2c(-c3ccc(-c4ccccc4)nc3)cnn2c1N [Compound 5.2, 5-((1R,3s,5S)-8-(1H-1,2,4-triazole-3-carbonyl)-8-azabicyclo[3.2.1]octan-3-yl)-7-amino-3-(6-phenylpyridin-3-yl)pyrazolo[1,5-a]pyrimidine-6-carbonitrile] | 0.001 to 0.1 µM | 0.001 to 0.1 µM | – | – | – |
| CC(=O)c1c([C@@H]2C[C@H]3CC[C@@H](C2)N3C(=O)CNS(C)(=O)=O)nc2c(-c3ccc(-c4ccccc4)nc3)cnn2c1N [Compound 1.1.23, N-(2-((1R,3s,5S)-3-(6-acetyl-7-amino-3-(6-phenylpyridin-3-yl)pyrazolo[1,5-a]pyrimidin-5-yl)-8-azabicyclo[3.2.1]octan-8-yl)-2-oxoethyl)methanesulfonamide] | 0.1 to 1 µM | 0.1 to 1 µM | – | – | – |
| CC(=O)c1c([C@@H]2C[C@H]3CC[C@@H](C2)N3C(=O)CO)nc2c(-c3ccc(-c4cc(C)[nH]n4)nc3)cnn2c1N [Compound 1.1.96, 1-((1R,3s,5S)-3-(6-acetyl-7-amino-3-(6-(5-methyl-1H-pyrazol-3-yl)pyridin-3-yl)pyrazolo[1,5-a]pyrimidin-5-yl)-8-azabicyclo[3.2.1]octan-8-yl)-2-hydroxyethanone] | > 10 µM | > 10 µM | – | – | – |
| CNC(=O)N1[C@@H]2CC[C@H]1C[C@H](c1nc3c(-c4ccc(-c5ccccc5)nc4)cnn3c(N)c1C(C)=O)C2 [Compound 1.1.39, (1R,3s,5S)-3-(6-acetyl-7-amino-3-(6-phenylpyridin-3-yl)pyrazolo[1,5-a]pyrimidin-5-yl)-N-methyl-8-azabicyclo[3.2.1]octane-8-carboxamide] | 0.001 to 0.1 µM | 0.001 to 0.1 µM | – | – | – |

From US9227971B2, “Pyrazolo[1,5-a]pyrimidine compounds as mTOR inhibitors” (Merck Sharp & Dohme Corp., priority 2010, dated 2016)
